Our source for the EC50 and IC50 values is US20230135152A1 (ACURASTEM INCORPORATED, priority 2020, published 2023).

A value given as a limit tells only on which side of the number the result lay.

For assay [1], the target named is T1, PIKFYVE (Homo sapiens, UniProt Q9Y2I7). Put plainly: Cell-based Pikfyve inhibition activity assay (EEA1 staining, mean vesicle size in BJ fibroblast cells). To be noted: Table 4, 4 hours treatment, 3 μM Apilimod = 100% inhibition. The protocol:
BJ fibroblast cells were obtained from American Type Cell Culture (ATCC, CRL-2522). The cells were maintained in DMEM (Genesee Scientific, 25-500) supplemented with 10% fetal bovine serum (Genesee Scientific, 25-514) and 1% penicillin-streptomycin (Genesee Scientific, 25-512) at 37° C. in the atmosphere 5% CO2. BJ fibroblasts were plated into black flat clear bottom 96-well plates (Grenier, 655090) at a density of 3×10^3 per well and were allowed to attach in culture for 8-10 hours before drug treatment. Drugs were tested at eleven doses separated by 3 fold from 0.03 nM to 3000 nM in triplicates for 4 hours at 37° C. After 4 hours, treatment media was aspirated and replaced with 4% Paraformaldehyde (Electron Microscopy Science, 15714-S) and cells were fixed at room temperature for 5 minutes. 4% PFA in wells were then discarded and replaced with a blocking buffer consisting of 1×PBS with 0.1% Tween (Sigma-Aldrich, P1754-500), 5% Donkey Serum (Jackson ImmunoResearch, 017-000-121), and 1% BSA (Caisson Labs, B005-50GM) and incubated at room temperature for 30 minutes. Blocking buffer was then discarded and replaced with a primary EEA1 antibody (Fisher Scientific, BD610457) in a 1:1000 dilution and incubated at 4° C. overnight. Following overnight incubation, plates were washed with 1×PBS three times and incubated with secondary antibody Donkey anti-Mouse IgG, Alexa Fluor 555 (Invitrogen, A31570) (1:1000 dilution) for 1 hour at room temperature in the dark. Subsequently cell plates were washed with 1×PBS three times and can be stored at 4° C. if not being proceeding with imaging procedure.
Images were acquired with 20× objective (ImageXpress MicroConfocal, Molecular Devices) creating z-series of 5 planes (5 steps, […]), 16 tiles per well. Images were then analyzed using a custom CellProfiler protocol to obtain mean vesicle size. The mean vesicle size from 16 images was used as the output for each well. The mean vesicle size from 0.5% DMSO treated condition was considered as having no Pikfyve inhibition activity and the 3 μM Apilimod treated condition was considered as having 100% inhibition activity. The mean vesicle size was converted to % inhibition activity and the data was fitted to a dose-response curve using log(inhibitor) vs normalized response-variable slope using GraphPad Prism.

Assay [2] concerns the target T1, PIKFYVE. The experiment in a line: PIKFYVE assay (luciferase ADP-Glo kinase assay, Promega). In kind it is biochemical. The method, boiled down:
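ADP generated in the kinase reaction was detected by ADP-Glo luminescence (luciferase).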

T1 sequence (Q9Y2I7 whole entry): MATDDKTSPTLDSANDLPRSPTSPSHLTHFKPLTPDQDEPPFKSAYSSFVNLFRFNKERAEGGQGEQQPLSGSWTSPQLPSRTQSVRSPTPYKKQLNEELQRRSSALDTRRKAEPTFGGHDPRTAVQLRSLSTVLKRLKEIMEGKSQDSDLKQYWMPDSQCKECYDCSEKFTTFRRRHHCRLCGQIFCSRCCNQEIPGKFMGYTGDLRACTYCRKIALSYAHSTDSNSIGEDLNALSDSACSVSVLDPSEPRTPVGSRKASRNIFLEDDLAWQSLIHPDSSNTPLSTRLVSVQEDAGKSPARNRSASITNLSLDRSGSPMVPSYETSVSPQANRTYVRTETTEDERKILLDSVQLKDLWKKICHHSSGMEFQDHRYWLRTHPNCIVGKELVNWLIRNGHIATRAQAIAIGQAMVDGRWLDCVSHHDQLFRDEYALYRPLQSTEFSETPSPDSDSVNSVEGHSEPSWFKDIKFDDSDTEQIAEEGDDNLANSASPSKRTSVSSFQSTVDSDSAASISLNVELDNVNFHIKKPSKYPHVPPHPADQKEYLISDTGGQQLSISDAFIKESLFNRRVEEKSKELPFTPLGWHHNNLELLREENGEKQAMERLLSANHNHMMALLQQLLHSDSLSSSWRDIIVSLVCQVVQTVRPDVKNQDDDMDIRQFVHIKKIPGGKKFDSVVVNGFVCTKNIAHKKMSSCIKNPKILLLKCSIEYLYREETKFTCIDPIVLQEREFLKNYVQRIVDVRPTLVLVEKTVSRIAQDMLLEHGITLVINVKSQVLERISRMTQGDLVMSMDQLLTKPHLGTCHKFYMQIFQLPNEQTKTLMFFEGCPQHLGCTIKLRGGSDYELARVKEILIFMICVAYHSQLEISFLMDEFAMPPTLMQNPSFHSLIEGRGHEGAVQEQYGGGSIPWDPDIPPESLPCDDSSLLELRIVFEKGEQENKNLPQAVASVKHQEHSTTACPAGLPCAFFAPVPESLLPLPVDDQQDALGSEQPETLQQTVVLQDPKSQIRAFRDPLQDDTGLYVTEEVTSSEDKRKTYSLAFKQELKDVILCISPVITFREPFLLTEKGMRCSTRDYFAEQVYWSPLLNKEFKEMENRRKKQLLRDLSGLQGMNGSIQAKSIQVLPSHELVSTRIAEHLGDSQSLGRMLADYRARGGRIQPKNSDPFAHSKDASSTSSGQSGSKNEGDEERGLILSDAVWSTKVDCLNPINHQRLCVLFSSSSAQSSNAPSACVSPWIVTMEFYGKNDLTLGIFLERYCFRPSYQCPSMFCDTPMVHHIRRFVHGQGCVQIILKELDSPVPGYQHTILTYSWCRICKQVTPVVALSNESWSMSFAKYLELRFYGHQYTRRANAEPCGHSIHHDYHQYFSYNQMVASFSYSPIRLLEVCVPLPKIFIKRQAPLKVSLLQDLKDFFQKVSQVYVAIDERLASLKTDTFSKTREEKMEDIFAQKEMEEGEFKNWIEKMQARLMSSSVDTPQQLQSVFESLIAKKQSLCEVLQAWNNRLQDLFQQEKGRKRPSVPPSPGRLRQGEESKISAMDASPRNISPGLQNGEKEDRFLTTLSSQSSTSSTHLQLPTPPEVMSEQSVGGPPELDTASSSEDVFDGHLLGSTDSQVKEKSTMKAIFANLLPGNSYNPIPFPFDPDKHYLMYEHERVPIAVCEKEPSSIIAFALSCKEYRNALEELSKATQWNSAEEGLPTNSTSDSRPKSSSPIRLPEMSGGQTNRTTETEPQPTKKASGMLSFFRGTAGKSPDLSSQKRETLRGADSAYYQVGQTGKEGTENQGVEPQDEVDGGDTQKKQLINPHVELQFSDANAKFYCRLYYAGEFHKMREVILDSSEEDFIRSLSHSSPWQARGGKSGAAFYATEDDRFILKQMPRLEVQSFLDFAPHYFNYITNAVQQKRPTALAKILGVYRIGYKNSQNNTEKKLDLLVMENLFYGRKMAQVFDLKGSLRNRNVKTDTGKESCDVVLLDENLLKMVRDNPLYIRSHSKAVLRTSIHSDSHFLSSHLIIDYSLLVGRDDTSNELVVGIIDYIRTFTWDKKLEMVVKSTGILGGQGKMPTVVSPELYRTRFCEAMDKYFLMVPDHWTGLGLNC

As usually defined, the EC50 is the midpoint of the concentration-response curve. A low value points to greater potency. As a reminder, the IC50 is the concentration that inhibits the measured activity by half. Lower therefore signals inhibition by little substance. With `Cc1cccc(-c2ccn(-c3cc(N4CCOCC4)nc(OCCCc4ccco4)n3)n2)c1` [Compound 112, 4-(2-(3-(furan-2-yl)propoxy)-6-(3-(m-tolyl)-1H-pyrazol-1-yl)pyrimidin-4-yl)morpholine], on PIKFYVE [1], the EC50 was in the range of 500 to 5000 nM. This molecule also showed an IC50 against PIKFYVE [2] (Table 3) of 10 to 100 nM.
In turn, `Cc1cccc(-c2ccn(-c3cc(N4CCOCC4)nc(CCc4cnn(C)c4)n3)n2)c1` [Compound 223, 4-(2-(2-(1-methyl-1H-pyrazol-4-yl)ethyl)-6-(3-(m-tolyl)-1H-pyrazol-1-yl)pyrimidin-4-yl)morpholine] returned an EC50 on PIKFYVE [1] of 100 to 500 nM. The molecule also yielded an IC50 against PIKFYVE [2] (Table 3) of under 3 nM.
Turning to `COC(c1ccccc1)c1nc(N2CCOCC2)cc(-n2ccc(-c3ccccc3)n2)n1` (centres unmarked) [Compound 78, 4-(2-(methoxy(phenyl)methyl)-6-(3-phenyl-1H-pyrazol-1-yl)pyrimidin-4-yl)morpholine], on PIKFYVE [1], the EC50 fell in the range of 500 to 5000 nM. On PIKFYVE [2] (Table 2), this molecule returned an IC50 of 5 to 100 nM.
Regarding `Cc1cccc(-c2ccn(-c3cc(N4CCOCC4)nc(OC4COC4)n3)n2)c1` [Compound 110, 4-(2-(oxetan-3-yloxy)-6-(3-(m-tolyl)-1H-pyrazol-1-yl)pyrimidin-4-yl)morpholine], at PIKFYVE [1], the EC50 fell in the range of 100 to 500 nM. Besides, the IC50 against PIKFYVE [2] (Table 3) is under 3 nM.
For the molecule `Cc1cccc(-c2ccn(-c3cc(N4CCOCC4)c4[nH]cc(C)c4n3)n2)c1` [Compound 335, 4-(3-methyl-5-(3-(m-tolyl)-1H-pyrazol-1-yl)-1H-pyrrolo[3,2-b]pyridin-7-yl)morpholine], at PIKFYVE [1], the EC50 lay within 500 to 5000 nM. The IC50 against PIKFYVE [2] (Table 3) fell in the range of 10 to 100 nM.
In the same order, the values of `Cn1cc(C(O)c2nc(N3CCOCC3)cc(-n3ccc(-c4ccccc4)n3)n2)cn1` (centres unmarked) [Compound 184, (1-methyl-1H-pyrazol-4-yl)(4-morpholino-6-(3-phenyl-1H-pyrazol-1-yl)pyrimidin-2-yl)methanol] are 100 to 500 nM and 10 to 100 nM.
In the same order, the values of `Cc1cccc(-c2ccn(-c3cc(N4CCOCC4)nc(-n4cnc(CCO)c4)n3)n2)c1` [Compound 339, 2-(1-(4-morpholino-6-(3-(m-tolyl)-1H-pyrazol-1-yl)pyrimidin-2-yl)-1H-imidazol-4-yl)ethan-1-ol] are 100 to 500 nM and 3 to 10 nM.
On PIKFYVE [1], `Cc1cccc(-c2ccn(-c3cc(N4CCOCC4)nc(OCCCC#N)n3)n2)c1` [Compound 175, 4-((4-morpholino-6-(3-(m-tolyl)-1H-pyrazol-1-yl)pyrimidin-2-yl)oxy)butanenitrile] gave an EC50 of 20 to 100 nM. On PIKFYVE [2] (Table 3), the IC50 was under 3 nM.
For the molecule `Cc1cc(-c2ccccc2)nn1-c1cc(N2CCOCC2)nc(N)n1` [Compound 202, 4-(5-methyl-3-phenyl-1H-pyrazol-1-yl)-6-morpholinopyrimidin-2-amine], the EC50 on PIKFYVE [1] is 500 to 5000 nM. This molecule also registered an IC50 at PIKFYVE [2] (Table 3) of 100 to 5000 nM.
`Cn1cc(CCOc2nc(N3CCOCC3)cc(-n3ccc(-c4ccncc4)n3)n2)cn1` [Compound 191, 4-(2-(2-(1-methyl-1H-pyrazol-4-yl)ethoxy)-6-(3-(pyridin-4-yl)-1H-pyrazol-1-yl)pyrimidin-4-yl)morpholine] came in with an EC50 at PIKFYVE [1] of over 5000 nM. On PIKFYVE [2] (Table 3), this molecule yielded an IC50 of 10 to 100 nM.
At PIKFYVE [1], `Cc1cccc(-c2ccn(-c3cc(N4CCOCC4)nc(N4CCCC4=O)n3)n2)c1` [Compound 61, 1-(4-morpholino-6-(3-(m-tolyl)-1H-pyrazol-1-yl)pyrimidin-2-yl)pyrrolidin-2-one] yielded an EC50 of 100 to 500 nM. Moreover, the IC50 on PIKFYVE [2] (Table 2) was 5 to 100 nM.
`Cc1cccc(-c2ccn(-c3cc(N4CCOCC4)c4[nH]c(C)cc4n3)n2)c1` [Compound 334, 4-(2-methyl-5-(3-(m-tolyl)-1H-pyrazol-1-yl)-1H-pyrrolo[3,2-b]pyridin-7-yl)morpholine] displayed an EC50 at PIKFYVE [1] of 500 to 5000 nM. In addition, the IC50 against PIKFYVE [2] (Table 3) was 10 to 100 nM.
On PIKFYVE [1], `COC(CC#N)c1nc(N2CCOCC2)cc(-n2ccc(-c3cccc(C)c3)n2)n1` (centres unmarked) [Compound 72, 3-methoxy-3-(4-morpholino-6-(3-(m-tolyl)-1H-pyrazol-1-yl)pyrimidin-2-yl)propanenitrile] yielded a 50% effective concentration (EC50) of 100 to 500 nM. The IC50 against PIKFYVE [2] (Table 2) is under 5 nM.
`Cc1cccc(-c2ccn(-c3cc(N4CCOCC4)nc(CCC(O)c4cnn(C)c4)n3)n2)c1` (centres unmarked) [Compound 231, 1-(1-methyl-1H-pyrazol-4-yl)-3-(4-morpholino-6-(3-(m-tolyl)-1H-pyrazol-1-yl)pyrimidin-2-yl)propan-1-ol] came in with an EC50 at PIKFYVE [1] of 20 to 100 nM. At PIKFYVE [2] (Table 3), this molecule returned an IC50 of under 3 nM.
For the molecule `CO[C@H](CO)c1nc(N2CCOCC2)cc(-n2nc(-c3ccccc3)cc2C)n1` (single isomer, unassigned) [Compound 205], the EC50 at PIKFYVE [1] was 500 to 5000 nM. Besides, at PIKFYVE [2] (Table 3), the IC50 lay in the range of 10 to 100 nM.
At PIKFYVE [1], `Cc1cccc(-c2ccn(-c3cc(N4CCOCC4)nc(OCC#N)n3)n2)c1` [Compound 174, 2-((4-morpholino-6-(3-(m-tolyl)-1H-pyrazol-1-yl)pyrimidin-2-yl)oxy)acetonitrile] came in with an EC50 of 100 to 500 nM. At PIKFYVE [2] (Table 3), the IC50 lay within 3 to 10 nM.
`Cn1cc(CCOc2nc(N3CCOCC3)cc(-n3ccc(-c4cccc(CO)c4)n3)n2)cn1` [Compound 179, (3-(1-(2-(2-(1-methyl-1H-pyrazol-4-yl)ethoxy)-6-morpholinopyrimidin-4-yl)-1H-pyrazol-3-yl)phenyl)methanol] returned an EC50 on PIKFYVE [1] of under 20 nM. Moreover, the IC50 against PIKFYVE [2] (Table 3) was under 3 nM.
In turn, `Cc1cccc(-c2ccn(-c3cc(N4CCOCC4)nc(OCCc4c[nH]cn4)n3)n2)c1` [Compound 119, 4-(2-(2-(1H-imidazol-4-yl)ethoxy)-6-(3-(m-tolyl)-1H-pyrazol-1-yl)pyrimidin-4-yl)morpholine] came in with an EC50 on PIKFYVE [1] of 20 to 100 nM. Also, the IC50 against PIKFYVE [2] (Table 3) fell in the range of 3 to 10 nM.
`Cc1cccc(-c2cc(N3CCOCC3)n(-c3cc(N4CCOCC4)nc(OCCc4cnn(C)c4)n3)n2)c1` [Compound 237, 4-(2-(2-(1-methyl-1H-pyrazol-4-yl)ethoxy)-6-(5-morpholino-3-(m-tolyl)-1H-pyrazol-1-yl)pyrimidin-4-yl)morpholine]: the EC50 on PIKFYVE [1] is under 20 nM. In addition, the IC50 against PIKFYVE [2] (Table 3) was under 3 nM.
Regarding `Cn1cc(CCOc2nc(N3CCOCC3)cc(-n3nc(-c4ccccc4)cc3CO)n2)cn1` [Compound 233, (1-(2-(2-(1-methyl-1H-pyrazol-4-yl)ethoxy)-6-morpholinopyrimidin-4-yl)-3-phenyl-1H-pyrazol-5-yl)methanol], the EC50 at PIKFYVE [1] was 20 to 100 nM. Besides, the IC50 on PIKFYVE [2] (Table 3) is under 3 nM.
Molecule `CC(=O)NCCOc1nc(N2CCOCC2)cc(-n2ccc(-c3cccc(C)c3)n2)n1` [Compound 90, N-(2-((4-morpholino-6-(3-(m-tolyl)-1H-pyrazol-1-yl)pyrimidin-2-yl)oxy)ethyl) acetamide] registered an EC50 on PIKFYVE [1] of under 20 nM. The IC50 on PIKFYVE [2] (Table 2) was under 5 nM.
As to `Cc1cccc(-c2ccn(-c3cc(N4CCOCC4)nc(O)n3)n2)c1` [Compound 106, 4-morpholino-6-(3-(m-tolyl)-1H-pyrazol-1-yl)pyrimidin-2-ol], at PIKFYVE [1], the EC50 was in the range of 500 to 5000 nM. In addition, the IC50 against PIKFYVE [2] (Table 3) was in the range of 10 to 100 nM.
In the same order, the values of `Cc1cccc(-c2ccn(-c3cc(N4CCOCC4)c4[nH]ccc4n3)n2)c1` [Compound 241, 4-(5-(3-(m-tolyl)-1H-pyrazol-1-yl)-1H-pyrrolo[3,2-b]pyridin-7-yl)morpholine] are 500 to 5000 nM and 3 to 10 nM.
On PIKFYVE [1], `Cc1cc(-c2ccccc2)nn1-c1cc(N2CCOCC2)nc(OCCc2cnn(C)c2)n1` [Compound 127, 4-(2-(2-(1-methyl-1H-pyrazol-4-yl)ethoxy)-6-(5-methyl-3-phenyl-1H-pyrazol-1-yl)pyrimidin-4-yl)morpholine] came in with an EC50 of 20 to 100 nM. The molecule also came in with an IC50 against PIKFYVE [2] (Table 3) of under 3 nM.
As for `CO[C@H](CO)c1nc(N2CCO[C@@H](C)C2)cc(-n2ccc(-c3cccc(C)c3)n2)n1` (single isomer, unassigned) [Compound 305], on PIKFYVE [1], the EC50 lay within 500 to 5000 nM. The same molecule came in with an IC50 against PIKFYVE [2] (Table 3) of 10 to 100 nM.
In turn, `Cn1cc(CCOc2nc(N3CCOCC3)cc(-n3ccc(-c4c[nH]c5ccccc45)n3)n2)cn1` [Compound 203, 4-(6-(3-(1H-indol-3-yl)-1H-pyrazol-1-yl)-2-(2-(1-methyl-1H-pyrazol-4-yl)ethoxy)pyrimidin-4-yl)morpholine] yielded a half-maximal effective concentration (EC50) at PIKFYVE [1] of 100 to 500 nM. Besides, the IC50 against PIKFYVE [2] (Table 3) was in the range of 10 to 100 nM.
`Cc1cccc(-c2ccn(-c3cc(N4CCOCC4)nc(OCCc4cnn(CCO)c4)n3)n2)c1` [Compound 180, 2-(4-(2-((4-morpholino-6-(3-(m-tolyl)-1H-pyrazol-1-yl)pyrimidin-2-yl)oxy)ethyl)-1H-pyrazol-1-yl)ethan-1-ol] gave an EC50 at PIKFYVE [1] of 20 to 100 nM. For the same molecule, the IC50 at PIKFYVE [2] (Table 3) is under 3 nM.
The molecule `Cc1cccc(-c2ccn(-c3cc(N4CCOCC4)nc([C@@H]4COCCO4)n3)n2)c1` (single isomer, unassigned) [Compound 324] gave an EC50 at PIKFYVE [1] of 500 to 5000 nM. The IC50 against PIKFYVE [2] (Table 3) was in the range of 10 to 100 nM.
